The values that follow come from PMC8863796 (Communications Biology, 2022).

Structures are written as SMILES.

Test [1] addresses T1, SARS-CoV-2 RdRp complex (nsp12/nsp7/nsp8) (Severe acute respiratory syndrome coronavirus 2, UniProt P0DTD1).
T1 construct: made in house
Nature of the test: Extension reactions of RNA template-loop-primers with nucleotide analogue triphosphates. The format is biochemical. Particulars: single-base extension of RNA template-loop-primers. As to the method: In total, 10 µL of 10 µM RNA template-loop-primers (5′-[…]-3′ for RDV-TP extension; 5′-[…]-3′ for SOF-TP extension) in 1 × RdRp reaction buffer was annealed by heating to 75 °C for 3 min and cooling to room temperature. In all, 5 µL of 8 µM RdRp complex (nsp12/nsp7/nsp8)[11],[20] in 1× reaction buffer was added to the annealed RNA template-loop-primer solution and incubated for an additional 10 min at room temperature. Finally, 5 µL of a solution containing 0.2 mM RDV-TP or 2 mM SOF-TP in 1× reaction buffer was added, and incubation was carried out for 2 h at 30 °C. The final concentrations of reagents in the 20 µL extension reactions were 2 µM nsp12/nsp7/nsp8, 5 µM RNA template-loop-primer, 50 µM RDV-TP, and 500 µM SOF-TP. The 1× reaction buffer contains the following reagents: 10 mM Tris-HCl pH 8, 10 mM KCl, 2 mM MgCl2 and 1 mM β-mercaptoethanol. Desalting of the reaction mixture was performed with an Oligo Clean & Concentrator kit (Zymo Research) resulting in ~10 µL purified aqueous RNA solutions. 1 µL of each solution was subjected to MALDI-TOF MS (Bruker ultrafleXtreme) analysis. The remaining ~9 µL extended template-loop-primer solutions were used to test exonuclease activity.
The RNA template-loop primer (5′-[…]-3′) was annealed at 75 °C for 3 min and cooled to room temperature for 25 min in 1× ThermoPol buffer before adding the other ingredients. The final 20 µL mixture containing 5 µM of the RNA template-loop primer, 250 µM, 500 µM or 1 mM AT-9010, 2 mM MnCl2 and 0.2 unit Therminator II in 1× ThermoPol buffer was incubated in a thermal cycler using the following protocol (28 cycles of 45 °C for 30 s, 55 °C for 30 s, 65 °C for 30 s). Desalting of the reaction mixture was performed with an Oligo Clean & Concentrator kit (Zymo Research) resulting in ~10 µL purified aqueous RNA solutions. 1 µL of each solution was subjected to MALDI-TOF MS (Bruker ultrafleXtreme) analysis. The remaining ~9 µL extended template-loop-primer solutions were used to test exonuclease activity. […]

The target in test [2] is SARS-CoV-2 exonuclease complex (nsp14/nsp10) (Severe acute respiratory syndrome coronavirus 2, UniProt P0DTD1). On the set-up: method as in earlier work. The following applies: previously demonstrated; cited from earlier work.

As for `C[C@@]1(F)[C@H](O)[C@@H](COP(=O)(O)OP(=O)(O)OP(=O)(O)O)O[C@H]1n1cnc2c(=O)[nH]c(N)nc21` [AT-9010, 2’-fluoro-2’-methyl guanosine-5’-triphosphate], in test [1], the “incorporation into RNA (template base opposite)” value (“incorporation into RNA” below) is on record as “incorporated opposite C”.

`NC(=O)c1nc(F)cn([C@@H]2O[C@H](COP(=O)(O)OP(=O)(O)OP(=O)(O)O)[C@@H](O)[C@H]2O)c1=O` [Favipiravir-RTP, Favipiravir-ribofuranosyl-5’-triphosphate]: the “incorporation into RNA” value in test [1] is listed as “incorporated into RNA opposite C or U”.

Consider `O=c1nc(NO)ccn1[C@@H]1O[C@H](COP(=O)(O)OP(=O)(O)OP(=O)(O)O)[C@@H](O)[C@H]1O` [NHC-TP, N^4-hydroxycytidine-5’-triphosphate], for which the “incorporation into RNA” value in test [1] is “incorporated opposite A or G”.

Take `COC[C@H]1C[C@@H](c2nc(-c3ccc4c(c3)COc3cc5c(ccc6nc([C@@H]7CC[C@H](C)N7C(=O)[C@@H](NC(=O)OC)C(C)C)[nH]c65)cc3-4)c[nH]2)N(C(=O)[C@H](NC(=O)OC)c2ccccc2)C1` [Velpatasvir]: in test [2], the “inhibition of SARS-CoV-2 exonuclease” value is recorded as “can inhibit the SARS-CoV-2 exonuclease”.
